Drawing on BindingDB's records for doi:10.1021/ja0296733 (Abbott Laboratories, 2003), this text covers Ki for three compounds.

The target in test [1] is T1, Tyrosine-protein phosphatase non-receptor type 2 (Homo sapiens, UniProt P17706).
T1 sequence (P17706 whole entry): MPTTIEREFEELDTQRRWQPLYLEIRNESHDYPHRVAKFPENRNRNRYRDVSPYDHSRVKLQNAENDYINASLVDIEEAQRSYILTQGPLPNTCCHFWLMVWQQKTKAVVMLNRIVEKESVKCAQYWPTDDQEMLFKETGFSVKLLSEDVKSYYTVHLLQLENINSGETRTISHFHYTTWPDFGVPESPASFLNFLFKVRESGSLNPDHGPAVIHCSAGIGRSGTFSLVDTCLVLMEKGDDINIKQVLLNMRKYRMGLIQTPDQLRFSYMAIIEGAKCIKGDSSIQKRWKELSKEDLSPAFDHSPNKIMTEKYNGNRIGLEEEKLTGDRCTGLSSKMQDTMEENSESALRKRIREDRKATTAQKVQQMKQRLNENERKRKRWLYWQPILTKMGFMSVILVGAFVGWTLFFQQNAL
The experiment in a line: PTP1B and TCPTP Inhibition Assay. To be noted: pH 7.5; 22 °C.
Protocol: (§1) For each concentration of test compound or DMSO control, the initial rates were used to fit the rectangular hyperbola of Michaelis-Menten by nonlinear regression analysis. The ratio of the apparent Km/Vmax vs inhibitor concentration was plotted, and the Ki was calculated by linear regression to be the negative X-intercept.

The target of test [2] is T2, Tyrosine-protein phosphatase non-receptor type 1 [1-298] (Homo sapiens, UniProt P18031).
T2 construct: 1-298
T2 sequence (P18031 whole entry): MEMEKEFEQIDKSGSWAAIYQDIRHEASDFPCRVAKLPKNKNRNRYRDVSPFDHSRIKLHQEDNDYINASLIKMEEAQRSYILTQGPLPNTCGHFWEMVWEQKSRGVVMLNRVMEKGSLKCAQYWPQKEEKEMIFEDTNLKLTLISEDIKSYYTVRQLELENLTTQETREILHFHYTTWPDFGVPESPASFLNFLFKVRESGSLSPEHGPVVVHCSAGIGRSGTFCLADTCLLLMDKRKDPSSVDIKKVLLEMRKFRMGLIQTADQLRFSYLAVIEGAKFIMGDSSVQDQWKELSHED
Nature of the test: PTP1B and TCPTP Inhibition Assay. To be noted: pH 7.5; 22 °C.
Protocol: as §1

Structures are written as SMILES.

`CC(=O)N[C@@H](Cc1ccc(N(C(=O)C(=O)O)c2ccccc2C(=O)O)c2ccccc12)C(=O)NCCCCCOc1cc2ccccc2cc1C(=O)O` [3-({5-[(N-Acetyl-3-{4-[(carboxycarbonyl)(2-carboxyphenyl)amino]-1-naphthyl}-L-alanyl)amino]pentyl}oxy)-2-naphthoic Acid]: the Ki (usually a measure of affinity in units of concentration, obtained from inhibition or displacement) in test [1] amounted to 0.049 µM. For the compound `Cc1cccc(N(C(=O)C(=O)O)c2ccccc2C(=O)O)c1C`, the Ki in test [1] turned out to be 164 µM; in test [2], 293 µM. On to `O=C(O)C(=O)N(c1ccccc1C(=O)O)c1cccc2ccccc12` [2-(Naphthalen-1-yloxalylamino)benzoic Acid], for which the inhibition constant Ki in test [1] amounted to 44 µM.
